Source: ChEMBL document CHEMBL6092137, “Synergistic immune augmentation enabled by covalently conjugating TLR4 and NOD2 agonists” (Eur J Med Chem, 2024)
The source made the active and inactive calls. The calls are words filed in the database; no cut-off is given here.

Tests used:
[1] = Toxicity in immunized BALB/c mouse assessed as change in AST level measured on day 42 […]; conditions: in vivo, 1008 h, time 42 day
[2] = Induction of mouse BMDC cell maturation assessed as change in CD86 positive cells incubated for 18 hrs by staining based flow cytometric analysis relative to control; assay type: functional
[3] = Immunostimulatory activity in female BALB/c mouse spleen T-lymphocytes assessed as fold increase in proportion of Tcm in CD4+ cells and measured on day 42 by staining based flow cytometric analysis relative to combination of RC529 and Muramyl dipeptide; assay type: functional, T-cell; conditions: time 42 day
[4] = Immunostimulatory activity in C57BL/6 mouse BMDC cells assessed as TLR4 inhibitor mediated reduction in IL-6 level at 9.3 uM incubated for 20 hrs in presence of GSK717 by ELISA; assay type: functional; design: scale not given: the % may be the effect or the level left
[5] = Toxicity in immunized BALB/c mouse assessed as vascular congestion in heart measured on day 42 by H and E staining based analysis; assay type: tissue-based; conditions: in vivo, 1008 h, time 42 day
[6] = system: THP-1; test: Cytotoxicity against human THP-1 cells assessed as reduction in cell viability by MTT assay; assay type: toxicity, cell-based
[7] = Toxicity in immunized BALB/c mouse assessed as inflammatory cell infiltration in lungs measured on day 42 by H and E staining based analysis; conditions: 1008 h, time 42 day
[8] = organism: Mus musculus; test: Activation of adaptive immune response in ovalbumin immunized mouse model assessed as increase in IgG2b titers incubated for 1 hrs and measured on day 42; assay type: functional, organism-based
[9] = organism: Mus musculus; test: Activation of adaptive immune response in ovalbumin immunized mouse model assessed as increase in IgG titers incubated for 1 hrs and measured on 28 to 42 days; assay type: functional, organism-based
[10] = system: T-cell; test: Immunostimulatory activity in mouse spleen T-lymphocytes assessed as fold increase in proportion of TNF-alpha and IFN-gamma double-positive secreting CD4+ cells and measured on day 42 by staining based flow cytometric analysis relative to muramyl dipeptide; assay type: functional; conditions: time 42 day
[11] = Toxicity in immunized BALB/c mouse assessed as inflammatory cell infiltration in brain measured on day 42 by H and E staining based analysis; assay type: tissue-based; conditions: 1008 h, time 42 day
[12] = Toxicity in immunized BALB/c mouse assessed as vascular congestion in brain measured on day 42 by H and E staining based analysis; assay type: tissue-based; conditions: in vivo, 1008 h, time 42 day
[13] = Toxicity in immunized BALB/c mouse assessed as vascular congestion in spleen measured on day 42 by H and E staining based analysis; conditions: in vivo, 1008 h, time 42 day
[14] = system: Mus musculus; test: Induction of innate immunity in BALB/c mouse assessed as fold increase in IL-6 level in serum at 22.53 ug, ip measured after 2 hrs by ELISA; assay type: functional; conditions: dose 22.53 µg
[15] = Induction of mouse RAW264.7 cell maturation assessed as fold increase in CD80 and CD86 positive cells incubated for 18 hrs by staining based flow cytometric analysis relative to combination of RC529 and Muramyl dipeptide; assay type: functional
[16] = organism: Mus musculus; test: Activation of adaptive immune response in ovalbumin immunized mouse model assessed as increase in IgG1 titers incubated for 1 hrs and measured on day 42; assay type: functional, organism-based
[17] = Toxicity in immunized BALB/c mouse assessed as vascular congestion in liver measured on day 42 by H and E staining based analysis; conditions: in vivo, 1008 h, time 42 day
[18] = Induction of mouse BMDC cell maturation assessed as fold increase in CD86 positive cells incubated for 18 hrs by staining based flow cytometric analysis relative to combination of RC529 and Muramyl dipeptide; assay type: functional
[19] = Induction of mouse RAW264.7 cell maturation assessed as change in CD86 positive cells incubated for 18 hrs by staining based flow cytometric analysis relative to control; assay type: functional
[20] = Toxicity in immunized BALB/c mouse assessed as inflammatory cell infiltration in heart measured on day 42 by H and E staining based analysis; assay type: tissue-based; conditions: 1008 h, time 42 day
[21] = Toxicity in immunized BALB/c mouse assessed as vascular congestion in lungs measured on day 42 by H and E staining based analysis; conditions: in vivo, 1008 h, time 42 day
[22] = Induction of mouse BMDC cell maturation assessed as fold increase in CD80 and CD86 positive cells incubated for 18 hrs by staining based flow cytometric analysis relative to combination of RC529 and Muramyl dipeptide; assay type: functional
[23] = system: T-cell; test: Immunostimulatory activity in mouse spleen T-lymphocytes assessed as fold increase in proportion of TNF-alpha and IFN-gamma double-positive secreting CD8+ cells and measured on day 42 by staining based flow cytometric analysis relative to combination of RC529 and muramyl dipeptide; assay type: functional; conditions: time 42 day
[24] = Toxicity in immunized BALB/c mouse assessed as inflammatory cell infiltration in spleen measured on day 42 by H and E staining based analysis; conditions: 1008 h, time 42 day
[25] = Immunostimulatory activity in C57BL/6 mouse BMDC cells assessed as TLR4 inhibitor mediated reduction in IL-6 level at 9.3 uM incubated for 20 hrs in presence of TAK242 by ELISA; assay type: functional; design: scale not given: the % may be the effect or the level left
[26] = Toxicity in immunized BALB/c mouse assessed as change in ALT level measured on day 42 […]; conditions: in vivo, 1008 h, time 42 day
[27] = Induction of mouse RAW264.7 cell maturation assessed as fold increase in CD80 positive cells incubated for 18 hrs by staining based flow cytometric analysis relative to combination of RC529 and Muramyl dipeptide; assay type: functional
[28] = Toxicity in immunized BALB/c mouse assessed as inflammatory cell infiltration in kidneys measured on day 42 by H and E staining based analysis; conditions: 1008 h, time 42 day
[29] = system: T-cell; test: Immunostimulatory activity in mouse spleen T-lymphocytes assessed as fold increase in proportion of TNF-alpha and IFN-gamma double-positive secreting CD4+ cells and measured on day 42 by staining based flow cytometric analysis RC529; assay type: functional; conditions: time 42 day
[30] = Induction of mouse BMDC cell maturation assessed as fold increase in CD80 positive cells incubated for 18 hrs by staining based flow cytometric analysis relative to combination of RC529 and Muramyl dipeptide; assay type: functional
[31] = Induction of mouse RAW264.7 cell maturation assessed as fold increase in CD86 positive cells incubated for 18 hrs by staining based flow cytometric analysis relative to combination of RC529 and Muramyl dipeptide; assay type: functional
[32] = system: T-cell; test: Immunostimulatory activity in mouse spleen T-lymphocytes assessed as fold increase in proportion of IFN-gamma positive secreting CD4+ cells and measured on day 42 by staining based flow cytometric analysis relative to RC529 and muramyl dipeptide combination; assay type: functional; conditions: time 42 day
[33] = organism: Mus musculus; test: Activation of adaptive immune response in ovalbumin immunized mouse model assessed as increase in IgG2a titers incubated for 1 hrs and measured on day 42; assay type: functional, organism-based
[34] = Induction of mouse BMDC cell maturation assessed as change in CD80 positive cells incubated for 18 hrs by staining based flow cytometric analysis relative to control; assay type: functional
[35] = Toxicity in immunized BALB/c mouse assessed as vascular congestion in kidneys measured on day 42 by H and E staining based analysis; conditions: in vivo, 1008 h, time 42 day
[36] = Immunostimulatory activity in female BALB/c mouse spleen T-lymphocytes assessed as fold increase in proportion of Tcm in CD8+ cells and measured on day 42 by staining based flow cytometric analysis relative to combination of RC529 and Muramyl dipeptide; assay type: functional, T-cell; conditions: time 42 day
[37] = organism: Mus musculus; test: Activation of adaptive immune response in ovalbumin immunized mouse model assessed as fold increase in IgG titers incubated for 1 hrs and measured on day 42 relative to combination of RC529 and Muramyl dipeptide; assay type: functional
[38] = Immunostimulatory activity in C57BL/6 mouse BMDC cells assessed as TLR4/NOD2 inhibitor mediated reduction in IL-6 level at 9.3 uM incubated for 20 hrs in presence of TAK242/ GSK717 by ELISA; assay type: functional; design: scale not given: the % may be the effect or the level left
[39] = Toxicity in immunized BALB/c mouse assessed as inflammatory cell infiltration in liver measured on day 42 by H and E staining based analysis; conditions: 1008 h, time 42 day
[40] = Immunostimulatory activity in mouse spleen T-lymphocytes assessed as fold increase in proportion of TNF-alpha positive secreting CD4+ cells and measured on day 42 by staining based flow cytometric analysis relative to RC529 and muramyl dipeptide combination; assay type: functional, T-cell
[41] = Induction of mouse RAW264.7 cell maturation assessed as change in CD80 positive cells incubated for 18 hrs by staining based flow cytometric analysis relative to control; assay type: functional

**Q.** For `CCCCCCCCCCCCCC(=O)O[C@H](CCCCCCCCCCC)CC(=O)NCCO[C@@H]1O[C@H](CNC(=O)CCc2cn(CCO[C@@H]3O[C@H](CO)[C@@H](O)[C@H](O[C@H](C)C(=O)N[C@H](C)C(=O)N[C@H](CCC(=O)O)C(N)=O)[C@H]3NC(C)=O)nn2)[C@@H](OP(=O)(O)O)[C@H](OC(=O)C[C@@H](CCCCCCCCCCC)OC(=O)CCCCCCCCCCCCC)[C@H]1NC(=O)C[C@@H](CCCCCCCCCCC)OC(=O)CCCCCCCCCCCCC`, which Activity [1] is on record?
**A.** Its Activity is “Non-toxic”.

**Q.** And the Activity [2]?
**A.** Its Activity is 22.4%.

**Q.** And the “fold change (FC)” value [3]?
**A.** Its value is 1.2.

**Q.** And the Activity [4]?
**A.** Its Activity is 58%.

**Q.** And the Activity [5]?
**A.** The Activity was “Non-toxic”.

**Q.** What about the Activity [6] of the same compound?
**A.** Its Activity is “Non-toxic”.

**Q.** What about the Activity [7] of the same compound?
**A.** Its Activity is “Non-toxic”.

**Q.** And the Activity [8]?
**A.** The Activity was “Active”.

**Q.** And the Activity [9]?
**A.** Its Activity is “Active”.

**Q.** What about the “fold change (FC)” value [10] of the same compound?
**A.** Its value is 1.5.

**Q.** And the Activity [11]?
**A.** The Activity was “Non-toxic”.

**Q.** And the Activity [12]?
**A.** Its Activity is “Non-toxic”.

**Q.** And the Activity [13]?
**A.** The Activity was “Non-toxic”.

**Q.** And the “fold change (FC)” value [14]?
**A.** Its value is 6.8.

**Q.** And the “fold change (FC)” value [15]?
**A.** The value was 2.1.

**Q.** What about the Activity [16] of the same compound?
**A.** Its Activity is “Active”.

**Q.** What about the Activity [17] of the same compound?
**A.** The Activity was “Non-toxic”.

**Q.** What about the “fold change (FC)” value [18] of the same compound?
**A.** Its value is 1.5.

**Q.** And the Activity [19]?
**A.** Its Activity is 29.9%.

**Q.** And the Activity [20]?
**A.** The Activity was “Non-toxic”.

**Q.** And the Activity [21]?
**A.** Its Activity is “Non-toxic”.

**Q.** And the “fold change (FC)” value [22]?
**A.** The value was 1.7.

**Q.** And the “fold change (FC)” value [23]?
**A.** The value was 3.3.

**Q.** What about the Activity [24] of the same compound?
**A.** Its Activity is “Non-toxic”.

**Q.** What about the Activity [25] of the same compound?
**A.** The Activity was 98%.

**Q.** What about the Activity [26] of the same compound?
**A.** Its Activity is “Non-toxic”.

**Q.** And the “fold change (FC)” value [27]?
**A.** Its value is 1.4.

**Q.** And the Activity [28]?
**A.** The Activity was “Non-toxic”.

**Q.** And the “fold change (FC)” value [29]?
**A.** The value was 1.6.

**Q.** What about the “fold change (FC)” value [30] of the same compound?
**A.** The value was 1.3.

**Q.** What about the “fold change (FC)” value [31] of the same compound?
**A.** The value was 2.2.

**Q.** And the “fold change (FC)” value [32]?
**A.** The value was 1.3.

**Q.** What about the Activity [33] of the same compound?
**A.** The Activity was “Active”.

**Q.** What about the Activity [34] of the same compound?
**A.** The Activity was 31.5%.

**Q.** And the Activity [35]?
**A.** The Activity was “Non-toxic”.

**Q.** And the “fold change (FC)” value [36]?
**A.** The value was 2.7.

**Q.** What about the “fold change (FC)” value [37] of the same compound?
**A.** Its value is 2.

**Q.** What about the Activity [38] of the same compound?
**A.** The Activity was 99%.

**Q.** What about the Activity [39] of the same compound?
**A.** The Activity was “Non-toxic”.

**Q.** And the “fold change (FC)” value [40]?
**A.** The value was 1.3.

**Q.** And the Activity [41]?
**A.** The Activity was 40.4%.
